# According to patent US8138227B2, “Method for inhibiting or reversing non-enzymatic glycation” (Trustees of Dartmouth College, priority 2006, dated 2012):
# Assay: Transglycation of glucose-ethylamine with thiolamines followed by 13C NMR
# Settings: 50 mM thiolamine, 20 mM G-E; for potency as transglycating agent (kinetics of decomposition of G-E and formation of thiazolidines): pH 7.25, room temperature; for conversion of G-E to thiazolidine (glucosyl-cysteamine / glucosyl-penicillamine): 250 mM HEPES pH 7.25, room temperature
# Method: The reaction mixture (0.5 ml in a 5 mm NMR tube) included 250 mM HEPES, pH 7.25, 10% D2O (for the purpose of locking the NMR magnetic field) and 50 mM concentration of a compound of interest such as cysteine. The reaction was performed at room temperature and it was initiated by adding an aliquot of G-E to produce a final concentration of 20 mM at which time consecutive NMR spectra of 20-minute duration were acquired using 580 scans, 60° pulses and an interpulse delay of 2.065 seconds.
# NMR spectra were obtained on the VARIAN UNITY-300 and -500 MHz machines. Spectra were analyzed using information from model compounds and chemical shift data known in the art (Neglia, et al. (1985) J. Biol. Chem. 260:5406-10; Mossine, et al. (1994) Carbohyd. Res. 262:257-70).
# Studies of reactions involving Schiff bases are intrinsically difficult as these compounds are labile at physiological pH. As such, to unambiguously follow Shiff base reactions in real-time, ^13C NMR spectroscopy was employed. To utilize this technique efficiently, glucose-ethylamine (G-E) was synthesized and labeled with ^13C at the C-1 position of the glucose moiety and with ^15N at the amino group of the ethylamine as a model compound of glucosyl-lysine.
# Due to the spin-spin coupling between the nuclei of neighboring ^15N and ^13C atoms, the ^13C-labeled C-1 peak of glucose appeared in the ^13C NMR spectrum as a doublet resonating at 90.00 ppm. The unique signature doublet in the ^13C NMR spectrum of G-E, its chemical shift as well as the distinct ^13C chemical shifts of the other glucose-nucleophile adducts allowed for real-time observation reactions between G-E and various nucleophiles since cleavage of the ethylamine-glucose bond results in loss of the G-E doublet and the concomitant formation of new peaks corresponding to the new glucose-nucleophile adducts, e.g., the endproducts of transglycation of G-E, with glycine, taurine, spermidine and N-acetylcysteine. Because all of these transglycation products are labile at physiological pHs, the reactions were carried at a slightly alkaline pH of 8.5 to stabilize the reactants and products sufficiently so they could be followed by NMR over a span of several hours.
smiles,measurement,value
N[C@@H](CS)C(=O)NCC(=O)O [cys-gly],potency as transglycating agent (kinetics of decomposition of G-E and formation of thiazolidines),reasonably good transglycating agents
NCCS [cysteamine],conversion of G-E to thiazolidine (glucosyl-cysteamine / glucosyl-penicillamine),80%
same,potency as transglycating agent (kinetics of decomposition of G-E and formation of thiazolidines),much more potent
N[C@@H](CS)C(=O)O [cysteine],potency as transglycating agent (kinetics of decomposition of G-E and formation of thiazolidines),reasonably good transglycating agents
CC(C)(S)[C@@H](N)C(=O)O [penicillamine],conversion of G-E to thiazolidine (glucosyl-cysteamine / glucosyl-penicillamine),70%
same,potency as transglycating agent (kinetics of decomposition of G-E and formation of thiazolidines),much more potent
